In ChEMBL document CHEMBL1201862, “PubChem BioAssay data set” (2004):
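Five concentrations, 48 hours, 96-well plates. GI50 marks 50% less growth.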 The source made the active and inactive calls. Rule as the data show it: active = GI50 up to about 1.1 µM and inactive = higher.

How the values were obtained:
Test in all cases: NCI anticancer screen, dose series, 48 h
ACHN = tested on: ACHN
CAKI-1 = tested on: CAKI-1
COLO 205 = tested on: COLO 205
HCT-15 = tested on: HCT-15
HL-60 = tested on: HL-60
HT-29 = tested on: HT-29
K562 = tested on: K562
MDA-MB-231 = tested on: MDA-MB-231
MDA-N = tested on: MDA-N
MOLT-4 = tested on: MOLT-4
NCI-H23 = tested on: NCI-H23
NCI-H522 = tested on: NCI-H522
OVCAR-4 = tested on: OVCAR-4
OVCAR-5 = tested on: OVCAR-5
SF-268 = tested on: SF-268
SN12C = tested on: SN12C
TK-10 = tested on: TK-10
UACC-62 = tested on: UACC-62
SF-539 = tested on: SF-539
UACC-257 = tested on: UACC-257

| SMILES | GI50 (ACHN) | GI50 (CAKI-1) | GI50 (COLO 205) | GI50 (HCT-15) | GI50 (HL-60) | GI50 (HT-29) | GI50 (K562) | GI50 (MDA-MB-231) | GI50 (MDA-N) | GI50 (MOLT-4) | GI50 (NCI-H23) | GI50 (NCI-H522) | GI50 (OVCAR-4) | GI50 (OVCAR-5) | GI50 (SF-268) | GI50 (SN12C) | GI50 (TK-10) | GI50 (UACC-62) | GI50 (SF-539) | GI50 (UACC-257) |
| --- | --- | --- | --- | --- | --- | --- | --- | --- | --- | --- | --- | --- | --- | --- | --- | --- | --- | --- | --- | --- |
| CC(CN(C)C)C(=O)c1ccccc1C(=O)O (stereo unspecified) | 35.6 µM (inactive) | 28.2 µM (inactive) | 25.4 µM (inactive) | 31.6 µM | 22.7 µM (inactive) | 38.7 µM (inactive) | 30.9 µM (inactive) | 18.8 µM (inactive) | 29.5 µM (inactive) | 20.4 µM (inactive) | 26.5 µM (inactive) | 10.7 µM (inactive) | 35.5 µM (inactive) | 52.4 µM (inactive) | 14.1 µM (inactive) | 25.9 µM (inactive) | 19.5 µM (inactive) | 20.1 µM (inactive) | – | – |
| CCOC1OC(CO[Si](C)(C)C(C)(C)C)C(O)CC1n1ccc(=O)[nH]c1=O (stereo unspecified) | > 100 µM (inactive) | 56.4 µM (inactive) | 80.5 µM (inactive) | 35.6 µM | – | 47.5 µM (inactive) | 31.9 µM (inactive) | 67 µM (inactive) | > 100 µM (inactive) | 27.7 µM (inactive) | > 100 µM (inactive) | 20.6 µM (inactive) | > 100 µM (inactive) | > 100 µM (inactive) | 30.8 µM (inactive) | > 100 µM (inactive) | > 100 µM (inactive) | > 100 µM (inactive) | 75.7 µM (inactive) | > 100 µM (inactive) |
| CC(=O)OC12CC(C(F)(F)F)(C(F)(F)F)OC1(OC(C)=O)CC(C(F)(F)F)(C(F)(F)F)O2 (stereo unspecified) | 0.287 µM (active) | – | 3.95 µM (inactive) | 11.5 µM | 1.89 µM (inactive) | 5.28 µM (inactive) | 0.612 µM (active) | 6.34 µM (inactive) | 5.92 µM (inactive) | 1.06 µM (active) | 1.23 µM (inactive) | 1.24 µM (inactive) | 4.23 µM (inactive) | 9.29 µM (inactive) | 1.58 µM (inactive) | 4.66 µM (inactive) | 8.28 µM (inactive) | 2.66 µM (inactive) | 2.07 µM (inactive) | 3.13 µM (inactive) |
| CCOC(=O)c1c(SCCN2CCOCC2)n(-c2ccccc2)c(=S)n(-c2ccccc2)c1=O | > 100 µM (inactive) | – | > 100 µM (inactive) | 20 µM | 20.8 µM (inactive) | 19.5 µM (inactive) | 19 µM (inactive) | 44 µM (inactive) | 36.5 µM (inactive) | 26.7 µM (inactive) | 32.4 µM (inactive) | 43.7 µM (inactive) | > 100 µM (inactive) | > 100 µM (inactive) | 37.4 µM (inactive) | > 100 µM (inactive) | > 100 µM (inactive) | 49.8 µM (inactive) | – | 25.8 µM (inactive) |
| C#CCOC(=O)C(N)CCSC (stereo unspecified) | > 100 µM (inactive) | > 100 µM (inactive) | > 100 µM (inactive) | – | > 100 µM (inactive) | > 100 µM (inactive) | – | > 100 µM (inactive) | > 100 µM (inactive) | > 100 µM (inactive) | > 100 µM (inactive) | > 100 µM (inactive) | – | > 100 µM (inactive) | > 100 µM (inactive) | > 100 µM (inactive) | > 100 µM (inactive) | > 100 µM (inactive) | – | > 100 µM (inactive) |
| CC(C)(C)n1c(=O)n2n(c1=O)Cc1cccc3cccc(c13)C2 | 20.6 µM (inactive) | 15.1 µM (inactive) | 29.5 µM (inactive) | 18.5 µM | – | 16.7 µM (inactive) | 10.3 µM (inactive) | 32.6 µM (inactive) | 22.1 µM (inactive) | 14.8 µM (inactive) | 25.6 µM (inactive) | 2.99 µM (inactive) | 19.6 µM (inactive) | 17 µM (inactive) | 14.5 µM (inactive) | 19.3 µM (inactive) | 29.1 µM (inactive) | 24 µM (inactive) | 17.2 µM (inactive) | 22.6 µM (inactive) |
| CCOC(=O)c1[nH]c2cccc3c2c1CC[C@H](NC(=O)C(F)(F)F)C3=O | < 0.01 µM (active) | 13.9 µM (inactive) | > 100 µM (inactive) | > 100 µM | > 100 µM (inactive) | > 100 µM (inactive) | 45.8 µM (inactive) | > 100 µM (inactive) | 34.5 µM (inactive) | > 100 µM (inactive) | 70.6 µM (inactive) | – | 24.7 µM (inactive) | > 100 µM (inactive) | 37.1 µM (inactive) | 40.3 µM (inactive) | 46 µM (inactive) | – | 38.1 µM (inactive) | 76.6 µM (inactive) |
| COC(=O)C1=C(O)C(C(=O)OC)[C@]2(O)[C@H](C(=O)OC)[C@H]1C[C@@H](c1ccc(OC)cc1)[C@H]2C(=O)OC (stereo partly specified) | 18 µM (inactive) | 19.5 µM (inactive) | 35.2 µM (inactive) | 21.9 µM | – | 29.8 µM (inactive) | 15.5 µM (inactive) | 30 µM (inactive) | 8.71 µM (inactive) | 10.2 µM (inactive) | 23.6 µM (inactive) | 2.36 µM (inactive) | 19.8 µM (inactive) | 20.7 µM (inactive) | 19.6 µM (inactive) | 21.5 µM (inactive) | 34.3 µM (inactive) | 12.1 µM (inactive) | 28.3 µM (inactive) | 24.7 µM (inactive) |
| N#Cc1c(N2CCN(c3ccc([N+](=O)[O-])cc3)CC2)[n+]([O-])c2ccccc2[n+]1[O-] | > 100 µM (inactive) | > 100 µM (inactive) | > 100 µM (inactive) | > 100 µM | – | > 100 µM (inactive) | 6.78 µM (inactive) | > 100 µM (inactive) | > 100 µM (inactive) | 1.93 µM (inactive) | > 100 µM (inactive) | 3.5 µM (inactive) | > 100 µM (inactive) | > 100 µM (inactive) | 0.346 µM (active) | > 100 µM (inactive) | > 100 µM (inactive) | > 100 µM (inactive) | 38.3 µM (inactive) | > 100 µM (inactive) |
| O=C1c2ccccc2C2(c3ccc(F)cc3)NCCN12 (stereo unspecified) | > 100 µM (inactive) | > 100 µM (inactive) | > 100 µM (inactive) | > 100 µM | > 100 µM (inactive) | > 100 µM (inactive) | > 100 µM (inactive) | > 100 µM (inactive) | > 100 µM (inactive) | > 100 µM (inactive) | > 100 µM (inactive) | > 100 µM (inactive) | > 100 µM (inactive) | > 100 µM (inactive) | > 100 µM (inactive) | > 100 µM (inactive) | > 100 µM (inactive) | > 100 µM (inactive) | – | > 100 µM (inactive) |
| Cn1nc(-c2ccccc2)c2c(-c3ccccc3)c3cc(Cl)ccc3nc21 | > 100 µM (inactive) | > 100 µM (inactive) | – | 12.7 µM | 18.2 µM (inactive) | 49.3 µM (inactive) | > 100 µM (inactive) | > 100 µM (inactive) | > 100 µM (inactive) | 15.8 µM (inactive) | > 100 µM (inactive) | 45 µM (inactive) | > 100 µM (inactive) | > 100 µM (inactive) | > 100 µM (inactive) | > 100 µM (inactive) | > 100 µM (inactive) | > 100 µM (inactive) | – | > 100 µM (inactive) |
| Clc1ccc(C2=NN=C3C(c4ccccc4)=Nc4ccccc4N3C2)cc1 | 7.06 µM (inactive) | 7.19 µM (inactive) | 5.68 µM (inactive) | 4.73 µM | 2.56 µM (inactive) | 3.01 µM (inactive) | 2.88 µM (inactive) | 32.7 µM (inactive) | 7.03 µM (inactive) | 0.957 µM (active) | 16.3 µM (inactive) | 2.75 µM (inactive) | 2.01 µM (inactive) | – | 2.88 µM (inactive) | 20.9 µM (inactive) | 3.89 µM (inactive) | 5.3 µM (inactive) | 19.3 µM (inactive) | 5.73 µM (inactive) |
| c1ccc2c(c1)cc1ccc3cccc4ccc2c1c34 | > 100 µM (inactive) | > 100 µM (inactive) | > 100 µM (inactive) | 6.05 µM | > 100 µM (inactive) | > 100 µM (inactive) | > 100 µM (inactive) | > 100 µM (inactive) | > 100 µM (inactive) | > 100 µM (inactive) | > 100 µM (inactive) | > 100 µM (inactive) | – | – | > 100 µM (inactive) | > 100 µM (inactive) | > 100 µM (inactive) | 67.9 µM (inactive) | > 100 µM (inactive) | > 100 µM (inactive) |
| N#Cc1nc(C#N)c(NC(=O)c2ccccc2C(=O)O)[nH]1 | > 100 µM (inactive) | > 100 µM (inactive) | > 100 µM (inactive) | – | > 100 µM (inactive) | > 100 µM (inactive) | > 100 µM (inactive) | > 100 µM (inactive) | > 100 µM (inactive) | > 100 µM (inactive) | > 100 µM (inactive) | > 100 µM (inactive) | – | > 100 µM (inactive) | > 100 µM (inactive) | > 100 µM (inactive) | > 100 µM (inactive) | > 100 µM (inactive) | > 100 µM (inactive) | > 100 µM (inactive) |
| CCOC(=O)c1nnc2c(C#N)c(-c3ccccc3)c(C)n2c1N | 29.9 µM (inactive) | 52.6 µM (inactive) | 32.9 µM (inactive) | 37.5 µM | – | 33.7 µM (inactive) | 31.8 µM (inactive) | 51.8 µM (inactive) | 27 µM (inactive) | 30.5 µM (inactive) | 38.3 µM (inactive) | 27.7 µM (inactive) | 10.9 µM (inactive) | > 100 µM (inactive) | 37.7 µM (inactive) | 37.8 µM (inactive) | 37 µM (inactive) | 23.9 µM (inactive) | 30.9 µM (inactive) | 25.4 µM (inactive) |
